# Ends that are not written are not given here. * marks the point of attachment. NorAha = N-(hexanoic acid)-cis-5-norbornene-exo-dicarboximide, O=C1[C@@H]2[C@H](C(=O)N1CCCCCC(=O)*)[C@H]1C=C[C@@H]2C1; fluorescein = 5(6)-carboxyfluorescein
# Tests used:
# [1] = system: trypsin, chymotrypsin and Pronase; test: RP-HPLC analysis of CPP proteolysis (intact material after protease treatment); type: in vitro ADME; conditions: 1 μM protease, 20 min
# Protocol: The extent of proteolytic degradation of the Tat peptide, polymer and particle by trypsin (Gibco Life Tech., cat. #15090-046), a-chymotrypsin (Fisher Scientific, cat. #ICN1522722) and Pronase (Roche, cat. #10165921001) was assessed by comparison of chromatograms in RP-HPLC. I n these experiments, the material at the indicated concentration was incubated with each protease (at 1 μM) for 20 min, and then the enzymes were heat denatured at 65° C. for 15 min, and the solution was immediately injected onto an analytical RP-HPLC. […] Note that the standard curves for the polymer and particle will be biased due to the fact that after cleavage, the polymer backbone and fluorophore should remain intact, and will comprise part of the measured peak area.
# Tat-containing materials, at the same concentration used in flow cytometery and confocal microscopy studies described above (2.5 M), were challenged for 20 min with various proteases at high enzyme concentration (˜1 M) prior to determining the extent of proteolytic cleavage and residual bioactivity. Such activity was assayed by three separate methods: reverse-phase high-performance liquid chromatography (RP-HPLC), flow cytometry, and confocal microscopy. […] The bioactivity of enzymatically digested materials was then assessed in cellular assays by both flow cytometry and confocal microscopy.
# chymotrypsin = chymotrypsin (Bos taurus, UniProt P00766); test: Time course of chymotrypsin treatment assayed by RP-HPLC; conditions: after 20 minutes of incubation with chymotrypsin (1 μM)
# HeLa cells [2] = test: Cellular uptake in HeLa cells by flow cytometry (Tat, Arg8, guanidinium materials and controls); type: cell-based; conditions: 30 min incubation, DMEM with 10% FBS
# HeLa cells [3] = test: CellTiter-Blue cell viability assay, 72 hrs; conditions: for LD50: data fit to the Hill equation
# Protocol: The cytotoxicity of materials was assessed using the CellTiter-Blue® assay (Promega, cat #G8081), which measures the metabolic reduction of resazurin to resorufin via fluorescence. For these studies, HeLa cells were plated at a density of 3,500 cells per well of a 96-well plate 18 hrs prior to treatment. Materials dissolved in DPBS at 10× the desired concentrations were added to the wells along with a 10% DMSO positive control. Cells were incubated for 72 hrs at 37° C. Note that concentration for all toxicity measurements is with respect to peptide concentration to ensure that all peptides and polymers are fairly compared with respect to their therapeutic components. […] The medium was removed and 80 μL of fresh medium lacking phenol red was added. To this was added 20 μL of the CellTiter-Blue® reagent and the cells were then incubated for 2 hrs prior to measuring fluorescence using 560 nm excitation and 590 nm emission. The fluorescence measurements were corrected for background fluorescence from the CellTiter-Blue® reagent by subtracting the fluorescence reading of wells treated with the reagent in the absence of cells. Fluorescence values were then referenced as a percentage of the value obtained for the DPBS vehicle control.
# HeLa cells [4] = test: Cellular uptake in HeLa cells by flow cytometry (GSGSG-derived and KLA polymers); type: cell-based; conditions: 2.5 μM with respect to fluorophore, 30 min
# Protocol: HeLa cells were plated at a density of 90,000 cells per well of a 24-well plate 18 hrs prior to treatment with the material of interest. Materials dissolved in Dulbecco's Phosphate Buffered Saline (DPBS without Ca2+ or Mg2+; Corning Cellgro, cat. #21-031-CM) at 10× the desired concentration (where concentration is with respect to fluorophore concentration to ensure propare comparison of each molecular transporter) were added to the wells and the plates were incubated for 30 min at 37° C. The medium was then removed and the cells were washed 2× with DPBS and then incubated 3× for five minutes each with heparin (0.5 mg/mL in DPBS; Affymetrix, cat. #16920) to remove any membrane-bound, non-internalized material, and finally rinsed again with DPBS. The cells were then trypsinized (0.25% trypsin in DPBS; Gibco Life Tech., cat. #15090-046) for 10 min, cold medium was added, and the cells were transferred to Eppendorfs. The suspended cells were centrifuged to pellets and then resuspended in a minimal amount of cold DPBS. Flow cytometry data (10,000 events on three separate cultures) was then acquired.
# HeLa cells [5] = test: Pharmacological and thermal probes of cellular uptake mechanisms by flow cytometry; type: cell-based; conditions: dynasore 80 μM, MβCD 9.5 mM, 4° C.
# Protocol: HeLa cells were plated at a density of 90,000 cells per well of a 24-well plate 18 h prior to treatment. Materials dissolved in Dulbecco's Phosphate Buffered Saline (DPBS without Ca^2+ or Mg^2+; Corning Cellgro, cat. #21-031-CM) at 10× the desired concentration were added to the wells, and the plates were incubated for 30 min at 37° C. The medium was then removed, and the cells were washed twice with DPBS and then incubated three times for 5 min with heparin (0.5 mg/mL in DPBS; Affymetrix, cat. #16920), and finally rinsed again with DPBS. The cells were then trypsinized (0.25% trypsin; Gibco Life Tech., cat. #15090-046) for 10 min, cold medium was added, and the cells were transferred to Eppendorfs, centrifuged to pellets and then resuspended in a minimal amount of cold DPBS. Fluorescence activated cell sorting data (10000 events on three separate cultures) was acquired on an Accuri C6 flow cytometer set to default “3 blue 1 red” configuration with standard optics and slow fluidics (14 μL/min). […] The cells were then incubated, prepared and analyzed by flow cytometry as described above. […] Data is reported as the normalized mean fluorescence, which are the mean fluorescence yielded by the material/the mean fluorescence from the vehicle control. […]
# HeLa cells [6] = test: Live-cell confocal microscopy (GSGSG-derived and KLA polymers); type: cell-based; conditions: 2.5 μM with respect to fluorophore
# [7] = system: CC(C)C[C@H](NC(=O)[C@H](Cc1c[nH]cn1)NC(=O)[C@H](C)NC(=O)[C@@H]1CCCN1C(=O)[C@H](CCCNC(=N)N)NC(=O)[C@H](CCC(=O)NCCNc1cccc2c(S(=O)(=O)O)cccc12)NC(=O)CN1C(=O)[C@@H]2[C@H](C1=O)[C@H]1C=C[C@@H]2C1)C(=O)N[C@@H](CCCNC(=N)N)C(=O)N[C@@H](CC(=O)O)C(=O)N[C@@H](CO)C(=O)NCC(=O)N[C@@H](CCCCNC(=O)c1ccc(N=Nc2ccc(N(C)C)cc2)cc1)C(=O)NCC(=O)N[C@@H](CO)C(=O)NCC(=O)N[C@@H](CO)C(=O)NCC(N)=O; test: purified protein, by the assay type; conditions: other: Michaelis-Menten plot, cleavage by MT1-MMP; pH 7.4
# [8] = 72 hrs, concentration with respect to peptide
compound,measurement,setting,value
N=C(N)NCCC[C@H](NC(=O)[C@H](CCCNC(=N)N)NC(=O)[C@H](CCCNC(=N)N)NC(=O)[C@H](CCC(N)=O)NC(=O)[C@H](CCCNC(=N)N)NC(=O)[C@H](CCCNC(=N)N)NC(=O)[C@H](CCCCN)NC(=O)[C@H](CCCCN)NC(=O)[C@H](CCCNC(=N)N)NC(=O)CNC(=O)[C@H](Cc1ccc(O)cc1)NC(=O)[C@@H](N)CCCCNC(=O)c1ccc2c(c1)C(=O)OC21c2ccc(O)cc2Oc2cc(O)ccc21)C(N)=O [Tat peptide],proteolysis by RP-HPLC after protease treatment (in words),[1],complete consumption
same,"material remaining, of the starting concentration",chymotrypsin,less than 10%
"Arg8 polymer: fluorescein end-labeled ROMP homopolymer of NorAha-Arg8 monomer, DP 8, deprotected (NorAha-RRRRRRRR-NH2; also: ROMP homopolymer, DP 8, fluorescein end label on polymer)",cellular uptake by flow cytometry (in words),HeLa cells [2],responses similar to those of the guanidinium polymer
"GSGSG56-b-OEG28 [GSGSG, m ~60]",cytotoxicity (in words),HeLa cells [3]; at concentrations up to 1 mM,No cytotoxicity
"GSGSGKK61-b-OEG30 [GSGSGKK, m ~60]",cytotoxicity (in words),HeLa cells [3]; at concentrations up to 1 mM,No cytotoxicity
"GSGSGR71-b-OEG26 (also: ROMP block copolymer, Arg block DP 71, OEG block DP 26) [GSGSGR, m ~60]",cellular uptake by flow cytometry (in words),HeLa cells [4],better intracellular penetration
"GSGSGRR57-b-OEG13 (not fully specified; also: ROMP polymer backbone, 57 repeats of peptide, OEG block, 13 units) [GSGSGRR, m ~60]",cellular uptake by flow cytometry (in words),HeLa cells [4],better intracellular penetration
same,cytotoxicity (in words),HeLa cells [3]; at concentrations up to 1 mM,No cytotoxicity
"K(5/6-Flu)RRRRRRRR-NH2 (K(fluorescein)RRRRRRRR-NH2) [Arg8 peptide, fluorescein-labeled canonical cell penetrating peptide Arg8]",effect of pharmacological and thermal inhibition on flow cytometry readings,HeLa cells [5],only a small effect
"KLA6 [KLA full length, m ~5]",LD50,HeLa cells [3]; [8],12.5 µM
"KLA11 [KLA full length, m ~10]",LD50,HeLa cells [3]; [8],25 µM
"KLA14 [KLA full length, m ~15]",LD50,HeLa cells [3]; [8],30 µM
"KLA(fragment)11 (KLAKLAK; also: ROMP polymer, 11 repeats) [KLA fragment, m ~10]",cellular uptake by flow cytometry (in words),HeLa cells [4],ability to enter cells
same,internalization and localization by live-cell confocal microscopy (in words),HeLa cells [6],a mixture of diffuse and punctate fluorescence
same,cytotoxicity (in words),HeLa cells [3]; [8],negligible toxicity
"KLAKLAKKLAKLAK (KLAKLAKKLAKLAK-NH2; also: fluorescein-lysine, position not given here) [KLA peptide, reference compound]",cellular uptake by flow cytometry (in words),HeLa cells [4],indistinguishable from that of the vehicle control
same,cytotoxicity (in words),HeLa cells [3]; [8],no cytotoxicity was detected
MT1-MMP (Homo sapiens),Km,[7],11 µM
same,kcat/Km,[7],8670 M⁻¹ s⁻¹
"R52-b-OEG20 [R control, m ~60]",internalization and localization by live-cell confocal microscopy (in words),HeLa cells [6],a mixture of diffuse and punctate fluorescence

# Reference: patent US11938218B2, “High density peptide polymers” (The Regents of the University of California, priority 2014, dated 2024)
